Results published in ChEMBL document CHEMBL4184107, “Structure based design of nicotinamide phosphoribosyltransferase (NAMPT) inhibitors from a phenotypic screen” (Bioorg Med Chem Lett, 2018).

Legend:
[1] = Permeability of the compound by PAMPA; assay type: ADME
[2] = Clearance in mouse liver microsomes; assay type: ADME, microsome; conditions: read-out: CLH
[3] = Clearance in nude mouse at 1 mg/kg, iv by HPLC-MS/MS analysis; assay type: ADME, organism-based; conditions: in vivo
[4] = Volume of distribution at steady state in nude mouse at 1 mg/kg, iv by HPLC-MS/MS analysis; assay type: ADME, organism-based; conditions: in vivo, read-out: Vdss
[5] = AUC in nude mouse at 10 mg/kg, po by HPLC-MS/MS analysis; assay type: ADME, organism-based; conditions: in vivo
[6] = Half life in nude mouse at 1 mg/kg, iv by HPLC-MS/MS analysis; assay type: ADME, organism-based; conditions: in vivo
[7] = Oral bioavailability in nude mouse at 10 mg/kg by HPLC-MS/MS analysis; assay type: ADME, organism-based; conditions: in vivo
[8] = Cmax in nude mouse at 10 mg/kg, po by HPLC-MS/MS analysis; assay type: ADME, organism-based; parameters: dose 10 mg/kg, route oral; conditions: in vivo
[9] = Tmax in nude mouse at 10 mg/kg, po by HPLC-MS/MS analysis; assay type: ADME, organism-based; conditions: in vivo
[10] = AUC in nude mouse at 1 mg/kg, iv by HPLC-MS/MS analysis; assay type: ADME, organism-based; conditions: in vivo
[11] = Half life in mouse microsomes; assay type: ADME, Microsome
[12] = Cmax in nude mouse at 15 mg/kg, po by HPLC-MS/MS analysis; assay type: ADME, organism-based; parameters: dose 15 mg/kg, route oral; conditions: in vivo
[13] = AUC in nude mouse at 15 mg/kg, po by HPLC-MS/MS analysis; assay type: ADME, organism-based; conditions: in vivo
[14] = Tmax in nude mouse at 15 mg/kg, po by HPLC-MS/MS analysis; assay type: ADME, organism-based; conditions: in vivo

SMILES | permeability [1] | microsomal CLint [2] [µL/min/mg] | other results
C[C@H](NC(=O)C1CCOCC1)c1ccc(NC(=O)[C@H]2C[C@@H]2c2cccnc2)cc1 | Impermeable | 25.1 | –
C[C@H](NC(=O)c1ccccn1)c1ccc(NC(=O)[C@H]2C[C@@H]2c2cccnc2)cc1 | Permeable | < 3.42 | –
C[C@H](NC(=O)c1ccc(F)cc1)c1ccc(NC(=O)[C@H]2C[C@@H]2c2cccnc2)cc1 | Permeable | 13.7 | –
C[C@H](NC(=O)[C@@H]1CCCN1C)c1ccc(NC(=O)[C@H]2C[C@@H]2c2cccnc2)cc1 | Permeable | 65.4 | –
C[C@H](NC(=O)c1ccccc1)c1ccc(NC(=O)[C@H]2C[C@@H]2c2cccnc2)cc1 | Permeable | 148 | clearance [3]: 6.8 mL/min/kg; Vd [4]: 0.5 L/kg; AUC [5]: 19.2 µM·h; half-life [6]: 1.5 h; bioavailability [7]: 31%; Cmax [8]: 12.7 µM; Tmax [9]: 0.5 h; AUC [10]: 6.18 µM·h
COCC(=O)N[C@@H](C)c1ccc(NC(=O)[C@H]2C[C@@H]2c2cccnc2)cc1 | Impermeable | 43.2 | –
C[C@H](NC(=O)c1ccc(C#N)cc1)c1ccc(NC(=O)[C@H]2C[C@@H]2c2cccnc2)cc1 | Impermeable | 53 | –
C[C@H](NC(=O)c1ccc(CN2CCOCC2)cc1)c1ccc(NC(=O)[C@H]2C[C@@H]2c2cccnc2)cc1 | Impermeable | – | half-life [11]: 7.67 h
C[C@H](NC(=O)c1ncccn1)c1ccc(NC(=O)[C@H]2C[C@@H]2c2cccnc2)cc1 | Permeable | 38.4 | –
CCC(=O)N[C@@H](C)c1ccc(NC(=O)[C@H]2C[C@@H]2c2cccnc2)cc1 | Impermeable | – | half-life [11]: 35 h
C[C@H](NC(=O)CC(F)(F)F)c1ccc(NC(=O)[C@H]2C[C@@H]2c2cccnc2)cc1 | Impermeable | 83.7 | –
O=C(NCc1ccc(S(=O)(=O)c2cccc(Cl)c2)cc1)c1cc2cnccc2[nH]1 | – | – | Cmax [12]: 2.07 µM; AUC [13]: 9.2 µM·h; Tmax [14]: 1 h
